Key:
PTZ-induced seizures = experiment: Anticonvulsant action in the pentylenetetrazol (PTZ) seizure model after 15-day oral pretreatment; type: in vivo, C57BL/6 male mice
Protocol: The anticonvulsant action of a preparation according to the invention, consisting of alpha-lactalbumin and sodium butyrate, was evaluated in comparison with that of the single components alpha-lactalbumin and sodium butyrate in the above-mentioned animal model, using the convulsant agent pentylenetetrazol
The experiment was carried out on groups of 10 C57BL/6 male mice (Charles River Italy) for each tested dose (control groups of 10 C57BL/6 male mice were also used).
The animals of all groups were subcutaneously administered pentylenetetrazol (65 mg/kg) at the end of a 15-day pretreatment with sodium butyrate, alpha-lactalbumin, alpha-lactalbumin+sodium butyrate or vehicle, i.e. water (control), respectively.
This pretreatment was carried out by oral administration of a solution of either one of sodium butyrate, alpha-lactalbumin, alpha-lactalbumin+sodium butyrate in the vehicle, consisting of water, and of the vehicle (water) alone.
Firstly, three groups of 10 mice were orally administered 30 mg/day, 100 mg/day and 250 mg/day of sodium butyrate respectively, in the form of an aqueous solution contained in the bottle of the cage, for 15 days. The bottle of the cage of the control group (10 mice) only contained water.
On the 16th day, the animals of the four groups were subcutaneously administered 65 mg/kg of pentylenetetrazol.
Then, three groups of 10 mice were orally administered 125 mg/day, 250 mg/day and 375 mg/day of alpha-lactalbumin respectively, in the form of an aqueous solution contained in the bottle of the cage, for 15 days. The bottle of the cage of the control group (10 mice) only contained water.
On the 16th day, the animals of the four groups were subcutaneously administered 65 mg/kg of pentylenetetrazol (PTZ).
Finally, a first group of 10 mice was orally administered 125 mg alpha-lactalbumin+100 mg sodium butyrate per day, a second group of 10 mice was orally administered 250 mg alpha-lactalbumin+100 mg sodium butyrate per day, a third group of 10 mice was orally administered 375 mg alpha-lactalbumin+100 mg sodium butyrate per day, in the form of an aqueous solution contained in the bottle of the cage, for 15 days. The bottle of the cage of the control group (10 mice) only contained water.

[1] = cited from earlier work
[2] = system: seizures induced by acoustic stimulation; details: after three weeks of treatment; cited from earlier work
audiogenic seizures = experiment: Protection against seizures in experimental models of epilepsy (audiogenic seizures in genetically epilepsy-prone-9 rats); type: in vivo; details: different experimental models of epilepsy; no increase on continuing up to 12 days; not dose dependent
From the text: Also the results obtained both in experimental models and in clinical trials confirm the need of repeated administrations for several days.

[3] = in vivo; cited from earlier work

CCCC(=O)[O-].[Na+] [sodium butyrate, reference compound]
animals that experienced seizures induced by pentylenetetrazol (PTZ-induced seizures; sodium butyrate 30, 100 or 250 mg/day oral in drinking water for 15 days, PTZ 65 mg/kg s.c. on day 16, no significant difference from control): 100%
activity towards the seizures induced by pentylenetetrazol (PTZ-induced seizures; sodium butyrate alone): devoid of any activity

alpha-lactalbumin
time after oral administration to demolition into medium-small peptides in the stomach [1]: 15 min
effect on percentage of mice with PTZ-induced seizures (PTZ-induced seizures; alpha-lactalbumin 125 mg/day alone, oral for 15 days): does not significantly decrease
animals showing PTZ-induced seizures (PTZ-induced seizures; alpha-lactalbumin 375 mg/day oral for 15 days, PTZ 65 mg/kg s.c. on day 16): less than 40%
course of percentage of animals with PTZ-induced seizures over dose (PTZ-induced seizures; alpha-lactalbumin 125, 250, 375 mg/day oral for 15 days): decrease in a dose-dependent fashion
duration of protective effect against seizures after suspension of treatment [2]: at least one month
days of repeated administrations until protective action against seizures occurs (audiogenic seizures): at least 6 days

CCCC(=O)O [butyric acid]
cerebral uptake [3]: ~0.006%
